The assay deals with T1, nonphosphorylated Abl kinase (Homo sapiens, UniProt P00519).
T1 construct: purchased deCode Abl-2
In words: Abl kinase assay (continuous spectrophotometric, pyruvate kinase/lactate dehydrogenase coupled). The assay is classed as biochemical. The note with it: for inhibition at 10 µM: read-out: % Inhi @ 10 uM. As for the experimental part:
A continuous spectrophotometric kinase assay is used, wherein the production of adenosine diphosphate is coupled to the oxidation of NADH and measured as a reduction in absorbance at 340 nm. For details see: Barker, S. C. et al, Biochemistry (1995) 34:14843; and Schindler, T. et al, Science (2000) 289:1938.
The reaction mixture (200 μl) contained Abl kinase (3.7 nM. Abl-2 from deCode), peptide substrate ([…], 0.5 mM), ATP (0.5 mM), MgCl2 (5 mM), pyruvate kinase (16 units), lactate dehydrogenase (26 units), phosphoenol pyruvate (1 mM), and NADH (0.28 mM) in 100 mM Tris buffer, pH 7.5. The reaction was initiated by adding ATP. The absorption at 340 nm was monitored continuously for 3 to 4 hours at 30° C. on Polarstar Optima plate reader (BMG). Under these conditions, a turn over number (kcat) of 1.4 s^−1 was obtained for the preparation of Abl kinase, which is similar to that (1.7 s^−1) reported for the nonphosphorylated enzyme (Brasher and Van Etten, JBC (2000) 275, 35631-35637). No autophosphorylation of Abl was observed under these conditions since the rate is constant throughout the entire reaction time and presumably because the concentration of the enzyme used is below the critical level (˜10 nM) needed for the autophosphorylation (Brasher and Van Etten, JBC (2000) 275, 35631-35637).
Percentage of inhibition in the presence of an inhibitor was obtained by comparison of reaction rate (or slope) with that of a control. IC50 value was calculated from a series of % inhibition values determined at a range of concentrations of the inhibitor using Prism.

T1 sequence (P00519 whole entry): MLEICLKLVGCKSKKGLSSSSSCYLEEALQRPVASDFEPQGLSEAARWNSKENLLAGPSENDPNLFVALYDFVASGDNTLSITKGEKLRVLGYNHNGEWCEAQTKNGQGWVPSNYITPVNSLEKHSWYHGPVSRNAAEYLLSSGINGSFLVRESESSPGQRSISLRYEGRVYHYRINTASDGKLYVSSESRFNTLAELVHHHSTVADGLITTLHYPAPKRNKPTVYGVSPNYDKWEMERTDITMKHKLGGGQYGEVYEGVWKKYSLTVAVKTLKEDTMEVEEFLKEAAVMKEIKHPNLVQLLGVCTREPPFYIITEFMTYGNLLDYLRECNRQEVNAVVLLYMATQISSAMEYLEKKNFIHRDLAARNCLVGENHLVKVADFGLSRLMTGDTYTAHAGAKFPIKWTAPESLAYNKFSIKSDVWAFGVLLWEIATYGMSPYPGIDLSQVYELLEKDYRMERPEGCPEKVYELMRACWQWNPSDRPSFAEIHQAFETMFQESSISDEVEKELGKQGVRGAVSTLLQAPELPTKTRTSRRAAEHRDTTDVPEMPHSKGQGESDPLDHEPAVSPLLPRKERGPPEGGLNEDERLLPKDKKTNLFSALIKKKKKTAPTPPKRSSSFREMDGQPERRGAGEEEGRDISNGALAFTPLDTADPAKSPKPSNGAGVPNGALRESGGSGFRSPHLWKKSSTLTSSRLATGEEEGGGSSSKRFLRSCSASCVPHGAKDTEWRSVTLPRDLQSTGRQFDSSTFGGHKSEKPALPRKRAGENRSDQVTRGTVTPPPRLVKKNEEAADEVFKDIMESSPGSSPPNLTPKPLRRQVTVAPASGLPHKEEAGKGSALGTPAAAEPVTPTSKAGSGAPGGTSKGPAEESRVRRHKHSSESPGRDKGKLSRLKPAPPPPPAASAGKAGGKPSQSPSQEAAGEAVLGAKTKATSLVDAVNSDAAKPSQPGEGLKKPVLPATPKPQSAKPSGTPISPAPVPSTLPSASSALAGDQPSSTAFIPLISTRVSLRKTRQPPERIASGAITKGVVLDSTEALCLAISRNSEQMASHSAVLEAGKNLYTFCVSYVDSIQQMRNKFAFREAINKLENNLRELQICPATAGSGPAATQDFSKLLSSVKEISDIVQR

With `Cc1ccc(NC(=O)c2ccc(CN3C(=O)CNS3(=O)=O)cc2)cc1Nc1nccc(-c2ccccc2)n1` [Example 12, N-[4-Methyl-3-(4-phenyl-pyrimidin-2-ylamino)-phenyl]-4-(1,1,3-trioxo-[1,2,5]thiadiazolidin-2-ylmethyl)-benzamide], the inhibition at 10 µM was determined as 52%.

Take `Cc1ccc(NC(=O)c2ccc(C(=O)N3C(=O)OC[C@@H]3c3ccccc3)cc2)cc1Nc1nccc(-c2cccnc2)n1` [Example 19, L-4-(2-oxo-4-phenyl-oxazolidine-3-carbonyl)-N-[4-methyl-3-(4-pyridin-3-yl-pyrimidin-2-ylamino)-phenyl]benzamide]: half-maximal inhibition (IC50) was put at 4 µM and the inhibition at 10 µM turned out to be 75%. As to `Cc1ccc(NC(=O)c2ccc(CN3CCS(=O)(=O)CC3)cc2)cc1Nc1nccc(N2CCOCC2)n1` [Example 15, 4-(((4,4-dioxothiomorpholinomethyl)1)methyl)-N-(4-methyl-3-(4-morpholinopyrimidin-2-ylamino)phenyl)benzamide], the inhibition at 10 µM amounted to 7%.

For `Cc1ccc(NC(=O)c2ccc(CN3CC(=O)N(C)C3=O)cc2)cc1Nc1nccc(-c2ccccc2)n1` [Example 6, N-(3-(4-phenylpyrimidin-2-ylamino)-4-methylphenyl)-4-((3-methyl-2,4-dioxoimidazolidin-1-yl)methyl)benzamide], the inhibition at 10 µM is 13%.

With `Cc1ccc(NC(=O)c2ccc(CNS(=O)(=O)NC(=O)N3CCCC3)cc2)cc1Nc1nccc(-c2ccccc2)n1` [Example 1], the inhibition at 10 µM is 10%.

As to `Cc1ccc(NC(=O)c2ccc(C(=O)N3C(=O)OC[C@@H]3c3ccccc3)cc2)cc1Nc1nccc(-c2ccccc2)n1` [Example 17, L-4-(2-oxo-4-phenyl-oxazolidine-3-carbonyl)-N-(4-methyl-3-(4-phenylpyrimidin-2-ylamino)phenyl)benzamide], the inhibition at 10 µM is 18%. For the compound `CNC(=O)CN(CC(=O)NC)C(=O)c1ccc(C(=O)Nc2ccc(C)c(Nc3ncccn3)c2)cc1` [Example 7, N^1,N^1-bis((methylcarbamoyl)methyl)-N^4-(4-methyl-3-(pyrimidin-2-ylamino)phenyl)terephthalamide], the inhibition at 10 µM came to 9%.

For `Cc1ccc(NC(=O)c2ccc(CN3CC(=O)N(C)C3=O)cc2)cc1Nc1ncccn1` [Example 5, 4-((3-methyl-2,4-dioxoimidazolidin-1-yl)methyl)-N-(4-methyl-3-(pyrimidin-2-ylamino)phenyl)benzamide], the inhibition at 10 µM was determined as 9%. For `Cc1ccc(NC(=O)c2ccc(CNC(=O)NS(=O)(=O)N3CCCC3)cc2)cc1Nc1nccc(-c2ccccc2)n1` [Example 3], the inhibition at 10 µM stood at 15%.

Take `Cc1ccc(NC(=O)c2ccc(C(=O)N3C(=O)OC[C@H]3c3ccccc3)cc2)cc1Nc1nccc(-c2cccnc2)n1` [Example 18, D-4-(2-oxo-4-phenyl-oxazolidine-3-carbonyl)-N-[4-methyl-3-(4-pyridin-3-yl-pyrimidin-2-ylamino)-phenyl]benzamide]: the midpoint of inhibition, the IC50, lay at 3 µM and the inhibition at 10 µM worked out at 70%. On to `Cc1ccc(NC(=O)c2ccc(Cn3sc(=O)n(-c4ccccc4)c3=O)cc2)cc1Nc1nccc(-c2ccccc2)n1` [Example 9, N-(3-(4-phenylpyrimidin-2-ylamino)-4-methylphenyl)-4-((3,5-dioxo-4-phenyl-1,2,4-thiadiazolidin-2-yl)methyl)benzamide], for which the inhibition at 10 µM is 42%. In the case of `Cc1ccc(NC(=O)c2ccc(CN3CC(=O)NS3(=O)=O)cc2)cc1Nc1nccc(-c2cccnc2)n1` [Example 10], the inhibition at 10 µM came out at 16%. Turning to `Cc1ccc(NC(=O)c2ccc(CNC(=O)NS(=O)(=O)N3CCCC3)cc2)cc1Nc1ncccn1` [Example 4], the inhibition at 10 µM turned out to be 24%. Still for that read-out and setting: the value for `Cc1ccc(NC(=O)c2ccc(Cn3c(=O)[nH]n(C)c3=O)cc2)cc1Nc1ncccn1` [Example 21, 4-((1-methyl-3,5-dioxo-1,2,4-triazolidin-4-yl)methyl)-N-(4-methyl-3-(pyrimidin-2-ylamino)phenyl)benzamide] was 12%; that for `Cc1ccc(NC(=O)c2ccc(CN3CCS(=O)(=O)CC3)cc2)cc1Nc1ncccn1` [Example 13, 4-(((4,4-dioxothiomorpholinomethyl)1)methyl)-N-(4-methyl-3-(pyrimidin-2-ylamino)phenyl)benzamide] was 31%; that for `Cc1ccc(NC(=O)c2ccc(CNS(=O)(=O)NC(=O)N3CCCC3)cc2)cc1Nc1ncccn1` [Example 2] was 9%.

`Cc1ccc(NC(=O)c2ccc(CN3CC(=O)NS3(=O)=O)cc2)cc1Nc1nccc(-c2ccccc2)n1` [Example 23]: the inhibition at 10 µM was 10%.

On to `CNC(=O)CN(CC(=O)NC)C(=O)c1ccc(C(=O)Nc2ccc(C)c(Nc3nccc(-c4ccccc4)n3)c2)cc1` [Example 8, N^1,N^1-bis((methylcarbamoyl)methyl)-N^4-(3-(4-phenylpyrimidin-2-ylamino)4-methylphenyl)terephthalamide], for which the inhibition at 10 µM was found to be 20%. The same measure, in the same setting: under `Cc1ccc(NC(=O)c2ccc(C(=O)N3C(=O)OC[C@H]3c3ccccc3)cc2)cc1Nc1nccc(-c2ccccc2)n1` [Example 16, D-4-(2-oxo-4-phenyl-oxazolidine-3-carbonyl)-N-(4-methyl-3-(4-phenylpyrimidin-2-ylamino)phenyl)benzamide] stands 9%.

A word on the IC50: it is the concentration that gives 50% inhibition. High values mean weaker potency, low ones greater potency.
